Key:
Test in all cases: Biofilm growth assay in BHI, crystal violet
Type in all cases: cell-based
Settings in all cases: control = 1
Actinomyces viscosus = tested on: Actinomyces viscosus
Method: (§1) The increase in biofilm formation of the tested bacteria in response to selected compounds (Met-Pro, Phe-Glu) was investigated by setting up biofilm growth assays in a nutritionally rich medium (brain heart infusion broth (BHI), Oxoid), over 48 hours. Late exponential growth phase liquid cultures were prepared by transferring the respective bacterium from blood agar plates to BHI and overnight incubation at 37° C. in an anaerobic atmosphere for A. viscosus, V. parvula, F. nucleatum, P. gingivalis, P. intermedia, T. forsythia, A. naeslundii, and C. sputigena, and in a 5% CO2 environment for S. salivarius, S. sanguinis, S. mitis, A. actinomycetemcomitans, S. mutans, and S. gordonii. Overnight cultures were transferred to BHI and adjusted to a concentration of 1×10^7 CFU/ml by measuring the optical density at 600 nm (OD600) (BioRad SmartSpec 3000). For each strain, 200 μl of the bacterial suspension was added to a 96-well plate containing 20 μl of the respective di-peptides. Final concentrations of the di-peptides were set to 5, 10, 20 and 25 μmol/ml. […] Additionally, for each bacterium tested, a background control, to correct for background staining, was added. This background control contained the bacterium tested and 0.03 weight % chlorhexidine, as an antiseptic. Plates were incubated as previously described. After 48 hrs the supernatant was removed from the wells of the plates. The wells were washed twice with 1×100 μL PBS (phosphate buffered saline), fixed for 20 minutes with 96% vol. ethanol (96% vol. solution in water) and the biofilm retained at the bottom of the wells was stained with 1 weight % crystal violet (1 weight % solution in water). The bound dye was dissolved with 5% vol. acetic acid (5% vol. solution in water). Quantification of the stained biofilm was performed by measuring the absorbance at 630 nm using a Multiskan Ascent microplate reader (Thermo Scientific).
(§2) The experiment was carried out on three different days (thus providing 3 biological replicas) and each day the experiment was carried out in quadruple (thus providing 4 technical replicas) for each combination of bacterium with dipeptide and for each control. For each day and for each combination, the average (mean) of the values obtained (as detailed above) for the four technical replicas was calculated to provide a single value for each combination on each day. The values shown in Tables 7 to 8, below, are the average (mean) of the three single values obtained for each combination of bacterium with dipeptide.

Veillonella parvula = tested on: Veillonella parvula
Method: as §1, §2

Tannerella forsythia = tested on: Tannerella forsythia
Method: as §1, §2

Porphyromonas gingivalis = tested on: Porphyromonas gingivalis
Method: as §1, §2

[1] = tested on: Aggregatibacter actinomycetemcomitans
Method: as §1, §2

Capnocytophaga sputigena = tested on: Capnocytophaga sputigena
Method: as §1, §2

Fusobacterium nucleatum = tested on: Fusobacterium nucleatum
Method: as §1, §2

Streptococcus mutans = tested on: Streptococcus mutans
Method: as §1, §2

Streptococcus salivarius = tested on: Streptococcus salivarius
Method: as §1, §2

Prevotella intermedia = tested on: Prevotella intermedia
Method: as §1, §2

Streptococcus mitis = tested on: Streptococcus mitis
Method: as §1, §2

Streptococcus sanguinis = tested on: Streptococcus sanguinis
Method: as §1, §2

Streptococcus gordonii = tested on: Streptococcus gordonii
Method: as §1, §2

Actinomyces naeslundii = tested on: Actinomyces naeslundii
Method: as §1, §2

Phe-Glu
biofilm growth: OD 630 nm (crystal violet) at 48 hrs divided by OD of control (Actinomyces viscosus; 5 μmol/ml): 1.3972
biofilm growth: OD 630 nm (crystal violet) at 48 hrs divided by OD of control (Actinomyces viscosus; 10 μmol/ml): 1.2242
biofilm growth: OD 630 nm (crystal violet) at 48 hrs divided by OD of control (Actinomyces viscosus; 20 μmol/ml): 0.0684
biofilm growth: OD 630 nm (crystal violet) at 48 hrs divided by OD of control (Actinomyces viscosus; 25 μmol/ml): 0.0490
biofilm growth: OD 630 nm (crystal violet) at 48 hrs divided by OD of control (Veillonella parvula; 5 μmol/ml): 0.3257
biofilm growth: OD 630 nm (crystal violet) at 48 hrs divided by OD of control (Veillonella parvula; 10 μmol/ml): 0.3136
biofilm growth: OD 630 nm (crystal violet) at 48 hrs divided by OD of control (Veillonella parvula; 20 μmol/ml): 0.1638
biofilm growth: OD 630 nm (crystal violet) at 48 hrs divided by OD of control (Veillonella parvula; 25 μmol/ml): 0.2969
biofilm growth: OD 630 nm (crystal violet) at 48 hrs divided by OD of control (Tannerella forsythia; 5 μmol/ml): 0.5744
biofilm growth: OD 630 nm (crystal violet) at 48 hrs divided by OD of control (Tannerella forsythia; 10 μmol/ml): 0.3083
biofilm growth: OD 630 nm (crystal violet) at 48 hrs divided by OD of control (Tannerella forsythia; 20 μmol/ml): 0.0188
biofilm growth: OD 630 nm (crystal violet) at 48 hrs divided by OD of control (Tannerella forsythia; 25 μmol/ml): 0.0254
biofilm growth: OD 630 nm (crystal violet) at 48 hrs divided by OD of control (Porphyromonas gingivalis; 5 μmol/ml): 0.7552
biofilm growth: OD 630 nm (crystal violet) at 48 hrs divided by OD of control (Porphyromonas gingivalis; 10 μmol/ml): 0.9004
biofilm growth: OD 630 nm (crystal violet) at 48 hrs divided by OD of control (Porphyromonas gingivalis; 20 μmol/ml): 0.1717
biofilm growth: OD 630 nm (crystal violet) at 48 hrs divided by OD of control (Porphyromonas gingivalis; 25 μmol/ml): 0.3008
biofilm growth: OD 630 nm (crystal violet) at 48 hrs divided by OD of control ([1]; 5 μmol/ml): 0.5867
biofilm growth: OD 630 nm (crystal violet) at 48 hrs divided by OD of control ([1]; 10 μmol/ml): 0.3454
biofilm growth: OD 630 nm (crystal violet) at 48 hrs divided by OD of control ([1]; 20 μmol/ml): 0.0481
biofilm growth: OD 630 nm (crystal violet) at 48 hrs divided by OD of control ([1]; 25 μmol/ml): 0.0212
biofilm growth: OD 630 nm (crystal violet) at 48 hrs divided by OD of control (Capnocytophaga sputigena; 5 μmol/ml): 0.1909
biofilm growth: OD 630 nm (crystal violet) at 48 hrs divided by OD of control (Capnocytophaga sputigena; 10 μmol/ml): 0.1079
biofilm growth: OD 630 nm (crystal violet) at 48 hrs divided by OD of control (Capnocytophaga sputigena; 20 μmol/ml): 0.1578
biofilm growth: OD 630 nm (crystal violet) at 48 hrs divided by OD of control (Capnocytophaga sputigena; 25 μmol/ml): 0.2648
biofilm growth: OD 630 nm (crystal violet) at 48 hrs divided by OD of control (Fusobacterium nucleatum; 5 μmol/ml): 0.2553
biofilm growth: OD 630 nm (crystal violet) at 48 hrs divided by OD of control (Fusobacterium nucleatum; 10 μmol/ml): 0.2232
biofilm growth: OD 630 nm (crystal violet) at 48 hrs divided by OD of control (Fusobacterium nucleatum; 20 μmol/ml): 0.0056
biofilm growth: OD 630 nm (crystal violet) at 48 hrs divided by OD of control (Fusobacterium nucleatum; 25 μmol/ml): 0.0112
biofilm growth: OD 630 nm (crystal violet) at 48 hrs divided by OD of control (Streptococcus mutans; 5 μmol/ml): 0.0781
biofilm growth: OD 630 nm (crystal violet) at 48 hrs divided by OD of control (Streptococcus mutans; 10 μmol/ml): 0.5693
biofilm growth: OD 630 nm (crystal violet) at 48 hrs divided by OD of control (Streptococcus mutans; 20 μmol/ml): 1.2009
biofilm growth: OD 630 nm (crystal violet) at 48 hrs divided by OD of control (Streptococcus mutans; 25 μmol/ml): 0.4072
biofilm growth: OD 630 nm (crystal violet) at 48 hrs divided by OD of control (Streptococcus salivarius; 5 μmol/ml): 1.4007
biofilm growth: OD 630 nm (crystal violet) at 48 hrs divided by OD of control (Streptococcus salivarius; 10 μmol/ml): 1.0359
biofilm growth: OD 630 nm (crystal violet) at 48 hrs divided by OD of control (Streptococcus salivarius; 20 μmol/ml): 0.8978
biofilm growth: OD 630 nm (crystal violet) at 48 hrs divided by OD of control (Streptococcus salivarius; 25 μmol/ml): 0.7342
biofilm growth: OD 630 nm (crystal violet) at 48 hrs divided by OD of control (Prevotella intermedia; 5 μmol/ml): 0.7904
biofilm growth: OD 630 nm (crystal violet) at 48 hrs divided by OD of control (Prevotella intermedia; 10 μmol/ml): 0.1852
biofilm growth: OD 630 nm (crystal violet) at 48 hrs divided by OD of control (Prevotella intermedia; 20 μmol/ml): 0.2103
biofilm growth: OD 630 nm (crystal violet) at 48 hrs divided by OD of control (Prevotella intermedia; 25 μmol/ml): 0.2516
biofilm growth: OD 630 nm (crystal violet) at 48 hrs divided by OD of control (Streptococcus mitis; 5 μmol/ml): 0.7237
biofilm growth: OD 630 nm (crystal violet) at 48 hrs divided by OD of control (Streptococcus mitis; 10 μmol/ml): 0.0179
biofilm growth: OD 630 nm (crystal violet) at 48 hrs divided by OD of control (Streptococcus mitis; 20 μmol/ml): 0.0264
biofilm growth: OD 630 nm (crystal violet) at 48 hrs divided by OD of control (Streptococcus mitis; 25 μmol/ml): 0.1018
biofilm growth: OD 630 nm (crystal violet) at 48 hrs divided by OD of control (Streptococcus sanguinis; 5 μmol/ml): 1.2254
biofilm growth: OD 630 nm (crystal violet) at 48 hrs divided by OD of control (Streptococcus sanguinis; 10 μmol/ml): 1.0551
biofilm growth: OD 630 nm (crystal violet) at 48 hrs divided by OD of control (Streptococcus sanguinis; 20 μmol/ml): 0.5417
biofilm growth: OD 630 nm (crystal violet) at 48 hrs divided by OD of control (Streptococcus sanguinis; 25 μmol/ml): 0.4820
biofilm growth: OD 630 nm (crystal violet) at 48 hrs divided by OD of control (Streptococcus gordonii; 5 μmol/ml): 1.8315
biofilm growth: OD 630 nm (crystal violet) at 48 hrs divided by OD of control (Streptococcus gordonii; 10 μmol/ml): 1.7019
biofilm growth: OD 630 nm (crystal violet) at 48 hrs divided by OD of control (Streptococcus gordonii; 20 μmol/ml): 0.6462
biofilm growth: OD 630 nm (crystal violet) at 48 hrs divided by OD of control (Streptococcus gordonii; 25 μmol/ml): 0.2237
biofilm growth: OD 630 nm (crystal violet) at 48 hrs divided by OD of control (Actinomyces naeslundii; 5 μmol/ml): 0.9914
biofilm growth: OD 630 nm (crystal violet) at 48 hrs divided by OD of control (Actinomyces naeslundii; 10 μmol/ml): 0.4234
biofilm growth: OD 630 nm (crystal violet) at 48 hrs divided by OD of control (Actinomyces naeslundii; 20 μmol/ml): 0.0174
biofilm growth: OD 630 nm (crystal violet) at 48 hrs divided by OD of control (Actinomyces naeslundii; 25 μmol/ml): 0.0067
